Molecules are shown by their SMILES. Read-outs that look alike come from different tables or passages of the source.

The target of one test is NDM-1 (Klebsiella pneumoniae, UniProt C7C422). Put plainly: biochemical. It is filed as biochemical. As to conditions: fluorescence assay with CCF2-FA substrate; read-out: NDM-1 IC50.
The test system of test [1] is Escherichia coli expressing NDM-1 (CLB30016). Put plainly: Antibiotic potentiation activity: synergistic concentration (MITC95) with imipenem, OD600 growth. In kind it is cell-based. As to conditions: CLB30016 (NDM-1), 95% inhibition of bacterial growth. A digest of the protocol: (§1)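 CLB30005 was precultured on Mueller Hinton agar with 8 ug/ml imipenem, the other strains on trypticase soy agar with 5% sheep blood, overnight at 35 °C. Saline suspensions diluted 1:100 in 1.1× CAMHB received compound and 4 μg/ml imipenem, then 22–24 h at 35 °C before absorbance reading.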

For test [2], the system named is Serratia marcescens expressing IMP-1 (CL5741). Described as above. It is filed as cell-based. As to conditions: CL5741 (IMP-1), 95% inhibition of bacterial growth. The essentials: as §1
Test [3] deals with Klebsiella pneumoniae expressing VIM-1 (IHMA599644). The description is as above. It is filed as cell-based. As to conditions: IHMA599644 (VIM-1), 95% inhibition of bacterial growth. A digest of the protocol:
as §1

The target of a further test is IMP-1 (Serratia marcescens, UniProt P52699). Put plainly: biochemical. As to conditions: fluorescence assay with CCF2-FA substrate; read-out: IMP-1 IC50. In kind it is biochemical.
IMP-1, sequence (P52699 whole entry, looked up): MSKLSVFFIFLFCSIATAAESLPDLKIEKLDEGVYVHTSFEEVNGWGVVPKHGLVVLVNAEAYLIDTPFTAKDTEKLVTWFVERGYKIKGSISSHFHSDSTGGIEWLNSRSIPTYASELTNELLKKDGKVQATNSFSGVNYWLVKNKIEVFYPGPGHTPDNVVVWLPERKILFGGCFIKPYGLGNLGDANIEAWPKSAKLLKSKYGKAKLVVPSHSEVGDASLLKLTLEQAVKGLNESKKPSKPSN
For a further test, the target named is VIM-1 (Pseudomonas aeruginosa (strain ATCC 15692 / DSM 22644 / CIP 104116 / JCM 14847 / LMG 12228 / 1C / PRS 101 / PAO1), UniProt A0A0F7KYQ8). Put plainly: Enzyme activity: determination of IC50, fluorescence assay with CCF2-FA substrate (VIM-1). In kind it is biochemical.
[4] abbreviates: fluorescence assay with CCF2-FA substrate, read-out: VIM-1 IC50.

NDM-1, sequence (C7C422 whole entry, looked up, species assumed): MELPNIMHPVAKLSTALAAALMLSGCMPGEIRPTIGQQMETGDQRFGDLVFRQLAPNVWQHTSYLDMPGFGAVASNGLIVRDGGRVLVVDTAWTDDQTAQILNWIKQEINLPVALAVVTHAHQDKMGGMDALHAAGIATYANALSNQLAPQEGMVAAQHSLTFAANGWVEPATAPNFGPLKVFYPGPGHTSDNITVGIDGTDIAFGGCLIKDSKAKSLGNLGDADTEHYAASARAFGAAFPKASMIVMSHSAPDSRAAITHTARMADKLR

With `NS(=O)(=O)c1c(C(F)(F)F)ccc(N2CCC3(CCCNC3)CC2)c1-c1nnn[nH]1` [Example 776, 3-(2,9-diazaspiro[5.5]undec-9-yl)-2-(1H-tetrazol-5-yl)-6-(trifluoromethyl) benzenesulfonamide], the IC50 on NDM-1 was determined as 15.2 nM; at IMP-1, 55.9 nM; at VIM-1 (setting [4]), 15.9 nM. For the same molecule, the “Escherichia coli MITC95” value in test [1] is 25 µM. The “Serratia marcescens MITC95” value in test [2] was 50 µM. In addition, in test [3], the “Klebsiella pneumoniae MITC95” value is 25 µM.
`NS(=O)(=O)c1c(C(F)(F)F)ccc(NC2(C3CCNC3)CC2)c1-c1nnn[nH]1` (stereo not drawn) [Example 777, 3-[(1-pyrrolidin-3-ylcyclopropyl)amino]-2-(1H-tetrazol-5-yl)-6-(trifluoromethyl) benzenesulfonamide]: the results for the IC50 on NDM-1, at IMP-1 and at VIM-1 (setting [4]) were 23.3 nM, 51.3 nM and 6.73 nM, respectively. Further, the “Escherichia coli MITC95” value in test [1] stood at 12.5 µM. The “Serratia marcescens MITC95” value in test [2] is 12.5 µM. In test [3], the “Klebsiella pneumoniae MITC95” value was determined as 6.25 µM.
As to `NC1CCN(c2ccc(C(F)(F)F)c(S(N)(=O)=O)c2-c2nnn[nH]2)CC1` [Example 778, 3-(4-amino-1-piperidyl)-2-(1H-tetrazol-5-yl)-6-(trifluoromethyl) benzenesulfonamide], the IC50 on NDM-1 was 147 nM; on IMP-1, 160 nM; at VIM-1 (setting [4]), 0.688 nM. The “Escherichia coli MITC95” value in test [1] stood at 3.125 µM. In addition, the “Serratia marcescens MITC95” value in test [2] was 1.563 µM. For the same molecule, in test [3], the “Klebsiella pneumoniae MITC95” value stood at 1.172 µM.
As to `NS(=O)(=O)c1c(C(F)(F)F)ccc(N2CCC(C3CCNCC3)CC2)c1-c1nnn[nH]1` [Example 779, 3-[4-(4-piperidyl)-1-piperidyl]-2-(1H-tetrazol-5-yl)-6-(trifluoromethyl) benzenesulfonamide], the IC50 on NDM-1 came to 6.42 nM; at IMP-1, 6.7 nM; on VIM-1 (setting [4]) it was 0.11 nM. Moreover, the “Escherichia coli MITC95” value in test [1] came out at 1.172 µM. Besides, the “Serratia marcescens MITC95” value in test [2] was 0.3906 µM. Besides, in test [3], the “Klebsiella pneumoniae MITC95” value came to 2.344 µM.
For `NS(=O)(=O)c1c(C(F)(F)F)ccc(N2CCC(N3CCNCC3)CC2)c1-c1nnn[nH]1` [Example 780, 3-(4-piperazin-1-yl-1-piperidyl)-2-(1H-tetrazol-5-yl)-6-(trifluoromethyl) benzenesulfonamide], the IC50 was determined as 17.7 nM at NDM-1, 31.7 nM on IMP-1 and 0.274 nM on VIM-1 (setting [4]). The “Escherichia coli MITC95” value in test [1] amounted to 1.563 µM. Further, the “Serratia marcescens MITC95” value in test [2] was 1.563 µM. Besides, the “Klebsiella pneumoniae MITC95” value in test [3] was 2.344 µM.
Turning to `NS(=O)(=O)c1c(C(F)(F)F)ccc(N2CCC3(CCNCC3)CC2)c1-c1nnn[nH]1` [Example 783, 3-(3,9-diazaspiro[5.5]undecan-3-yl)-2-(1H-tetrazol-5-yl)-6-(trifluoromethyl) benzenesulfonamide], the IC50 on NDM-1 was 4.91 nM; on IMP-1, 13.4 nM; at VIM-1 (setting [4]), 1.93 nM. For the same molecule, in test [1], the “Escherichia coli MITC95” value is 1.172 µM. Moreover, the “Serratia marcescens MITC95” value in test [2] is 0.5859 µM. Also, the “Klebsiella pneumoniae MITC95” value in test [3] stood at 2.344 µM.
As for `CN(C)c1ccc(C(F)(F)F)c(S(N)(=O)=O)c1-c1nnn[nH]1` [Example 784, 3-(dimethylamino)-2-(1H-tetrazol-5-yl)-6-(trifluoromethyl) benzenesulfonamide], the IC50 worked out at 41.7 nM at NDM-1, 48.3 nM on IMP-1 and 15.5 nM at VIM-1 (setting [4]). The “Escherichia coli MITC95” value in test [1] worked out at 3.125 µM. In test [2], the “Serratia marcescens MITC95” value is 3.125 µM. The “Klebsiella pneumoniae MITC95” value in test [3] was 31.25 µM.
Consider `NS(=O)(=O)c1c(C(F)(F)F)ccc(-c2ccc(C3CCN(C4CCNCC4)CC3)cc2)c1-c1nnn[nH]1` [Example 785, 4′-(1,4′-bipiperidin-4-yl)-2-(1H-tetrazol-5-yl)-4-(trifluoromethyl)biphenyl-3-sulfonamide], for which the IC50 was found to be 4.21 nM on NDM-1, 1.09 nM at IMP-1 and 12.2 nM on VIM-1 (setting [4]). The “Escherichia coli MITC95” value in test [1] was determined as 1.563 µM. In addition, the “Serratia marcescens MITC95” value in test [2] was found to be 3.125 µM. In addition, the “Klebsiella pneumoniae MITC95” value in test [3] came to 25 µM.
Take `NC1CCC(N2CCC(c3ccc(-c4ccc(C(F)(F)F)c(S(N)(=O)=O)c4-c4nnn[nH]4)cc3)CC2)C1` (stereo not drawn) [Example 786, 4′-[1-(3-aminocyclopentyl)piperidin-4-yl]-2-(1H-tetrazol-5-y)-4-(trifluoromethyl)biphenyl-3-sulfonamide]: the results for the IC50 at NDM-1, on IMP-1 and at VIM-1 (setting [4]) were 6.2 nM, 2.08 nM and 12 nM, respectively. Further, in test [1], the “Escherichia coli MITC95” value is 1.563 µM. In test [2], the “Serratia marcescens MITC95” value was 3.125 µM. For the same molecule, in test [3], the “Klebsiella pneumoniae MITC95” value was 50 µM.
For `NCC1CCC(N2CCC(c3ccc(-c4ccc(C(F)(F)F)c(S(N)(=O)=O)c4-c4nnn[nH]4)cc3)CC2)CC1` (stereo not drawn) [Example 787, 4′-{1-[4-(aminomethyl)cyclohexyl]piperidin-4-yl}-2-(1H-tetrazol-5-yl)-4-(trifluoromethyl)biphenyl-3-sulfonamide], the IC50 turned out to be 7.09 nM at NDM-1, 1.71 nM at IMP-1 and 8.1 nM on VIM-1 (setting [4]). The “Escherichia coli MITC95” value in test [1] amounted to 1.563 µM. Besides, the “Serratia marcescens MITC95” value in test [2] is 3.125 µM. The “Klebsiella pneumoniae MITC95” value in test [3] was determined as 25 µM.
With `NS(=O)(=O)c1c(C(F)(F)F)ccc(-c2ccc(C3CCN(C4CC5CCC4N5)CC3)cc2)c1-c1nnn[nH]1` (stereo not drawn) [Example 788, 4′-[1-(7-azabicyclo[2.2.1]hept-2-yl)piperidin-4-yl]-2-(1H-tetrazol-5-yl)-4-(trifluoromethyl)biphenyl-3-sulfonamide], the IC50 on NDM-1 amounted to 2.83 nM; on IMP-1, 0.438 nM; against VIM-1 (VIM-1 IC50, fluorescence assay with CCF2-FA substrate), 35.7 nM. The “Escherichia coli MITC95” value in test [1] was 6.25 µM. The “Serratia marcescens MITC95” value in test [2] amounted to 6.25 µM. In addition, the “Klebsiella pneumoniae MITC95” value in test [3] is over 200 µM.
`NS(=O)(=O)c1c(C(F)(F)F)ccc(-c2ccc(C3CCN(C4CCNC4)CC3)cc2)c1-c1nnn[nH]1` (stereo not drawn) [Example 789, 4′-(1-pyrrolidin-3-ylpiperidin-4-yl)-2-(1H-tetrazol-5-yl)-4-(trifluoromethyl)biphenyl-3-sulfonamide]: the IC50 came out at 2.4 nM on NDM-1, 0.472 nM on IMP-1 and 16.5 nM on VIM-1 (setting [4]). In addition, in test [1], the “Escherichia coli MITC95” value came out at 3.125 µM. In addition, the “Serratia marcescens MITC95” value in test [2] came out at 3.125 µM. The “Klebsiella pneumoniae MITC95” value in test [3] turned out to be 100 µM.
On to `NC1CC(N2CCC(c3ccc(-c4ccc(C(F)(F)F)c(S(N)(=O)=O)c4-c4nnn[nH]4)cc3)CC2)C1` (stereo not drawn) [Example 790, 4′-[1-(3-aminocyclobutyl)piperidin-4-yl]-2-(1H-tetrazol-5-yl)-4-(trifluoromethyl)biphenyl-3-sulfonamide], for which the IC50 at NDM-1 was found to be 3.57 nM; on IMP-1 it was 0.871 nM; on VIM-1 (setting [4]) it was 7.26 nM. Besides, in test [1], the “Escherichia coli MITC95” value stood at 0.7813 µM. Besides, the “Serratia marcescens MITC95” value in test [2] stood at 3.125 µM. In addition, the “Klebsiella pneumoniae MITC95” value in test [3] was 12.5 µM.
Consider `NCCC1CCC(N2CCC(c3ccc(-c4ccc(C(F)(F)F)c(S(N)(=O)=O)c4-c4nnn[nH]4)cc3)CC2)CC1` (stereo not drawn) [Example 792, 4′-{1-[4-(2-aminoethyl)cyclohexyl]piperidin-4-yl}-2-(1H-tetrazol-5-yl)-4-(trifluoromethyl)biphenyl-3-sulfonamide], for which the IC50 worked out at 7.31 nM on NDM-1, 1.55 nM at IMP-1 and 4.38 nM at VIM-1 (setting [4]). In addition, the “Escherichia coli MITC95” value in test [1] turned out to be 3.125 µM. Besides, the “Serratia marcescens MITC95” value in test [2] was determined as 3.125 µM. In addition, the “Klebsiella pneumoniae MITC95” value in test [3] amounted to 25 µM.
For the molecule `NS(=O)(=O)c1c(C(F)(F)F)ccc(-c2ccc(C3CCN(CCC4CCNCC4)CC3)cc2)c1-c1nnn[nH]1` [Example 793, 4′-[1-(2-piperidin-4-ylethyl)piperidin-4-yl]-2-(1H-tetrazol-5-yl)-4-(trifluoromethyl)biphenyl-3-sulfonamide], the IC50 on NDM-1 stood at 7 nM; at IMP-1 it was 1.02 nM; on VIM-1 (setting [4]) it was 4.66 nM. For the same molecule, in test [1], the “Escherichia coli MITC95” value turned out to be 1.563 µM. Also, the “Serratia marcescens MITC95” value in test [2] was found to be 3.125 µM. In addition, the “Klebsiella pneumoniae MITC95” value in test [3] stood at 25 µM.
`NC1CCC(N2CCC(c3ccc(-c4ccc(C(F)(F)F)c(S(N)(=O)=O)c4-c4nnn[nH]4)cc3)CC2)CC1` (stereo not drawn) [Example 794, 4′-[1-(4-aminocyclohexyl)piperidin-4-yl]-2-(1H-tetrazol-5-yl)-4-(trifluoromethyl)biphenyl-3-sulfonamide]: the IC50 on NDM-1 was determined as 6.44 nM; on IMP-1 it was 1.76 nM; at VIM-1 (setting [4]), 11 nM. Besides, the “Escherichia coli MITC95” value in test [1] was 1.563 µM. In addition, in test [2], the “Serratia marcescens MITC95” value came out at 3.125 µM. Besides, the “Klebsiella pneumoniae MITC95” value in test [3] was found to be 50 µM.

The IC50 is the midpoint of a concentration-inhibition curve.

These data come from patent US9708336B2, “Metallo-beta-lactamase inhibitors” (priority 2014, dated 2017).
